The test system of one assay is Artemia salina. Kind of assay: In vitro inhibitory activity required against Artemia salina. It counts as functional.
In a further assay the test system is Caenorhabditis elegans. Kind of assay: In vitro inhibitory activity required against Caenorhabditis elegans. The format is functional.

In brackets after ≈: the same amount, converted by molar mass.

As to `CO[C@H]1C[C@H](O[Si](C)(C)C(C)(C)C)O[C@@H](C)/C1=C/C(=O)N1CCOCC1`, the MIC in the assay with Artemia salina and in the assay with Caenorhabditis elegans was 0.01 µg/mL (≈ 0.0259 µM) each time.

For `CO[C@H]1C[C@H](O[Si](C)(C)C(C)(C)C)O[C@@H](C)/C1=C/C(=O)N1CCCCC1`, the MIC (commonly the smallest concentration in the dilution series that meets the test's criterion for growth inhibition) against Artemia salina worked out at 0.002 µg/mL (≈ 0.00521 µM); in the assay on Caenorhabditis elegans, 0.01 µg/mL (≈ 0.0261 µM).

`CO[C@H]1C[C@H](O[Si](C)(C)C(C)(C)C)O[C@@H](C)/C1=C/C=O`: the MIC in the assay on Artemia salina and against Caenorhabditis elegans was 0.01 µg/mL (≈ 0.0333 µM) throughout.

As for `CCOC(=O)/C=C1/[C@H](C)O[C@@H](O[Si](C)(C)C(C)(C)C)C[C@@H]1OC`, the MIC against Artemia salina and in the assay with Caenorhabditis elegans was 0.01 µg/mL (≈ 0.029 µM) in each case.

Consider `CO/N=C/C=C1\[C@H](C)O[C@@H](O[Si](C)(C)C(C)(C)C)C[C@@H]1OC`, for which the MIC with Artemia salina and against Caenorhabditis elegans was 0.01 µg/mL (≈ 0.0303 µM) each time.

In the case of IVERMECTIN, the MIC with Artemia salina and against Caenorhabditis elegans was 0.002 µg/mL throughout.

Consider `CO[C@H]1C[C@H](O[Si](C)(C)C(C)(C)C)O[C@@H](C)/C1=C\C=N\O`, for which the MIC in the assay with Artemia salina was 0.002 µg/mL (≈ 0.00634 µM); against Caenorhabditis elegans it was 0.01 µg/mL (≈ 0.0317 µM).

With `CO[C@H]1C[C@H](O[Si](C)(C)C(C)(C)C)O[C@@H](C)/C1=C/CO`, the MIC against Artemia salina and in the assay with Caenorhabditis elegans was 0.01 µg/mL (≈ 0.0331 µM) each time.

As to `CO[C@H]1C[C@H](O[Si](C)(C)C(C)(C)C)O[C@@H](C)/C1=C/CN1CCOCC1`, the MIC in the assay with Artemia salina and in the assay on Caenorhabditis elegans was 0.01 µg/mL (≈ 0.0269 µM) in each case.

Take `CC[C@H](C)[C@H]1O[C@]2(C=C[C@@H]1C)C[C@@H]1C[C@@H](C/C=C(\C)[C@@H](O[C@H]3C[C@H](OC)[C@@H](O[C@H]4C[C@H](OC)[C@@H](O)[C@H](C)O4)[C@H](C)O3)[C@@H](C)/C=C/C=C3\CO[C@@H]4[C@H](O)C(C)=C[C@@H](C(=O)O1)[C@]34O)O2` [ABAMECTIN COMPONENT B1A]: the MIC against Artemia salina is 0.0005 µg/mL (≈ 0.000573 µM); in the assay on Caenorhabditis elegans, 0.002 µg/mL (≈ 0.00229 µM).

In the case of `CO[C@H]1C[C@H](O[Si](C)(C)C(C)(C)C)O[C@@H](C)/C1=C/C(=O)N1CCNCC1`, the minimum inhibitory concentration (MIC) with Artemia salina is 0.002 µg/mL (≈ 0.0052 µM); with Caenorhabditis elegans, 0.01 µg/mL (≈ 0.026 µM).

For `CO[C@H]1C[C@H](O[Si](C)(C)C(C)(C)C)O[C@@H](C)/C1=C/CCl`, the MIC against Artemia salina and against Caenorhabditis elegans was 0.01 µg/mL (≈ 0.0312 µM) in each case.

For the compound `C=CCOC(=O)/C=C1/[C@H](C)O[C@@H](O[Si](C)(C)C(C)(C)C)C[C@@H]1OC`, the MIC stood at 0.002 µg/mL (≈ 0.00561 µM) against Artemia salina and 0.01 µg/mL (≈ 0.028 µM) against Caenorhabditis elegans.

With `CO[C@H]1C[C@H](O[Si](C)(C)C(C)(C)C)O[C@@H](C)/C1=C\C#N`, the MIC against Artemia salina and against Caenorhabditis elegans was 0.002 µg/mL (≈ 0.00672 µM) in each case.

Turning to `CO[C@H]1C[C@H](O[Si](C)(C)C(C)(C)C)O[C@@H](C)/C1=C/C#N`, the MIC with Artemia salina and against Caenorhabditis elegans was 0.0005 µg/mL (≈ 0.00168 µM) in each case.

For the compound `CO[C@H]1C[C@H](O[Si](C)(C)C(C)(C)C)O[C@@H](C)/C1=C/CN1CCCCC1`, the MIC was 0.01 µg/mL (≈ 0.0271 µM) against Artemia salina and 0.05 µg/mL (≈ 0.135 µM) with Caenorhabditis elegans.

`CO[C@H]1C[C@H](O[Si](C)(C)C(C)(C)C)O[C@@H](C)/C1=C\COC(=O)c1cccnc1`: the MIC in the assay with Artemia salina is 0.002 µg/mL (≈ 0.00491 µM); in the assay on Caenorhabditis elegans, 0.01 µg/mL (≈ 0.0245 µM).

Consider `CO[C@H]1C[C@H](O[Si](C)(C)C(C)(C)C)O[C@@H](C)/C1=C/C(=O)O`, for which the MIC turned out to be 0.002 µg/mL (≈ 0.00632 µM) against Artemia salina and 0.01 µg/mL (≈ 0.0316 µM) against Caenorhabditis elegans.

In the case of `CO[C@H]1C[C@H](O[Si](C)(C)C(C)(C)C)O[C@@H](C)/C1=C\COC(=O)c1ccncc1`, the MIC in the assay with Artemia salina was 0.01 µg/mL (≈ 0.0245 µM); in the assay on Caenorhabditis elegans it was 0.05 µg/mL (≈ 0.123 µM).

`CO[C@H]1C[C@H](O[Si](C)(C)C(C)(C)C)O[C@@H](C)/C1=C/CN1CCNCC1`: the MIC with Artemia salina amounted to 0.002 µg/mL (≈ 0.0054 µM); in the assay with Caenorhabditis elegans, 0.01 µg/mL (≈ 0.027 µM).

`CO[C@H]1C[C@H](O[Si](C)(C)C(C)(C)C)O[C@@H](C)/C1=C\C(=O)O`: the MIC with Artemia salina was found to be 0.002 µg/mL (≈ 0.00632 µM); in the assay on Caenorhabditis elegans, 0.01 µg/mL (≈ 0.0316 µM).
